“Also recorded” adds a separate entry of the source. Where two headings read alike, the source gives them in different places.
Key:
[1] = Water solubility; format: physicochemical; conditions: relative to forskolin
[2] = Stability to heating in base; format: physicochemical; conditions: heating in 0.1N KOH in methanol, two hours, 60° C.
Procedure: The 7-aminoethylcarbamate can be synthesized using the 1,9-dimethylformamide acetal of 7-desacetylforskolin as starting material (see synthetic scheme of FIG. 2). The selective reactivity of carbonyldiimidazole (CDI) with the equatorial 7β-hydroxyl group is exploited to form the 7-acylimidazole intermediate. The reaction of the 7-acylimidazole intermediate with ethylenediamine produces the 7-aminoethylcarbamate of forskolin (see 3 in FIG. 1 and Example 1). The same procedure is carried out to produce 7β-aminobutylcarbamate (5), 7β-aminohexylcarbamate (6), and the 7β-aminoheptylcarbamate (7) of forskolin. The 7β-aminoalkylcarbamates of forskolin are very stable compounds. The 7β-aminoethylcarbamate of forskolin is stable to heating in 0.1N KOH in methanol for two hours at 60° C.

[3] = target: T1, glucose transporter (Homo sapiens, UniProt P11166); experiment: Filtration binding assay, ^125 I-labelled derivative 8 (7-^125 I-HPP-Fsk) to human red blood cell membranes; conditions: for inhibition of 7-^125 I-HPP-Fsk binding: human red blood cell membranes
T1 construct: Crude membranes from human red blood cells; from tissue; host or cells: human red blood cells, membranes
T1 sequence (P11166 1-492): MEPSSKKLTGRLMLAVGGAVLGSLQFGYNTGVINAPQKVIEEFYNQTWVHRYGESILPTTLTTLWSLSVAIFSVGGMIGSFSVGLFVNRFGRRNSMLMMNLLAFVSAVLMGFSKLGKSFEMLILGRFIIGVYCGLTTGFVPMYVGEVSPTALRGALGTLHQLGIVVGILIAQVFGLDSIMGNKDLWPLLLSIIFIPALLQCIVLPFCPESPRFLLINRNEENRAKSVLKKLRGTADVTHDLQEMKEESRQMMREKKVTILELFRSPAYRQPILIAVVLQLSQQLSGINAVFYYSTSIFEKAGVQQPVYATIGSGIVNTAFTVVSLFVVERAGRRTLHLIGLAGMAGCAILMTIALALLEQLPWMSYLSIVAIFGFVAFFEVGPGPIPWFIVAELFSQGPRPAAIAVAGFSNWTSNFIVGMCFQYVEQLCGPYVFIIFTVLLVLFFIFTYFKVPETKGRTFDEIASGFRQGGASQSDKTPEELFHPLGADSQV
Procedure: Binding of 7-^125 IHPP-Fsk to Membranes--Crude membranes from human red blood cells were incubated for 60 minutes at 20° C. with 20,000 cpm of 7-^125 IHPP-Fsk. […] The incubations were carried out at 20° C. for 60 minutes in 12×75 glass test tubes in a total volume of 0.4 mL 50 mM Tris-HCl buffer, pH 7.4. The assay was terminated by the addition of 4 mL of cold Tris-HCl buffer to the tubes at rapid filtration over Whatman GF/C filters using a Brandel cell harvester. The assay was terminated as described above and the filters counted in a gamma counter. The nonspecific binding was calculated as the amount of label not displaced by 20 μM forskolin.

[4] = test system: bovine brain adenylate cyclase; experiment: Activation of bovine brain adenylate cyclase; format: biochemical; conditions: relative to forskolin
[5] = test system: adenylate cyclase; experiment: Binding of 6-^125 I-HPP-Fsk to membranes from human platelets
Excerpt: (§1) Derivative 19 (6-^125 I-HPP-Fsk) was used to develop a binding assay for adenylate cyclase (Example 4). […] Therefore, a filtration assay can be used to separate the bound from free ligand and determine the amount of high affinity binding. […] Analogs of forskolin that activate adenylate cyclase inhibit the binding of 6-^125 I-HPP-Fsk to membranes. The ability of an agent to inhibit 6-^125 I-HPP-Fsk binding to membranes is therefore indicative of its ability to stimulate adenylate cyclase.

[6] = test system: adenylate cyclase; experiment: Filtration binding assay, ^125 I-labelled derivative 19 (6-^125 I-HPP-Fsk) to bovine brain membranes; conditions: for inhibition of 6-^125 I-HPP-Fsk binding: 60 min
Excerpt: as §1
Binding of 6-^125 I-HPP-Fsk to Membranes--Crude membranes from bovine brain were incubated for 60 minutes at […] 20° C. with 20,000 cpm of 6-^125 I-HPP-Fsk. Binding equilibrium was reached by 45 minutes and was constant for at least 2 hours (data not shown). The incubations were carried out at 20° C. for 60 minutes in 12×75 glass test tubes in a total volume of 0.4 mL […] Tris-HCl buffer, pH 7.4. The membranes (0.40 mg/tube) were incubated in the presence of 5 mM MgCl2 and 10 mM NaF. The assay was terminated by the addition of 5 mL of cold Tris-HCl buffer to the tubes and rapid filtration over Whatman GF/C filters using a Brandel cell harvester. The assay was terminated as described above and the filters counted in a gamma counter. The nonspecific binding was calculated as the amount of label not displaced by 20 uM forskolin. The non specific binding was about 20% of the total bound.

[7] = test system: adenylate cyclase; conditions: literature, cited from earlier work
[8] = target: T2, P-glycoprotein (Homo sapiens, UniProt P08183)
[9] = test system: glucose transporter; conditions: cited from earlier work
[10] = test system: adenylate cyclase; experiment: Photolabelling of bovine brain membranes, SDS gel electrophoresis; format: binding
Procedure: (§2) Derivative 20 (6-AIPPS-Fsk) is incubated with partially purified preparations of bovine brain adenylate cyclase, photolyzed, and then the radioactive proteins are analyzed by SDS gel electrophoresis. […] 6-AIPPS-Fsk can also label adenylate cyclase in crude membranes. 6-AIPPS-Fsk is incubated with bovine brain membranes, photolyzed, and the radioactive proteins are analyzed by SDS gel electrophoresis.

[11] = test system: cancer cells; conditions: certain cancer cells; literature; cited from earlier work
[12] = target: T2, P-glycoprotein; experiment: Photolabelling of membranes from human ovarian carcinoma cell line overexpressing P-glycoprotein
[13] = test system: adenylate cyclase; experiment: Photolabelling of partially purified bovine brain adenylate cyclase, SDS gel electrophoresis; format: binding
Procedure: as §2

[14] = test system: P-glycoprotein; experiment: Binding to the P-glycoprotein
[15] = literature; cited from earlier work
[16] = target: T1, glucose transporter; experiment: Photolabelling of human red blood cell membranes, SDS gel electrophoresis; format: binding
Procedure: Derivative 9 (7-AIPPS-Fsk) is incubated with human red blood cell membranes, photolyzed, and then the radioactive proteins were analyzed by SDS gel electrophoresis.

[17] = target: T3, glucose transporter (Homo sapiens, UniProt P11169); experiment: Binding of 7-^125 I-HPP-Fsk to human platelets
T3 construct: other tissues including bovine brain, rat heart, rat muscle, and human platelets; from tissue; host or cells: human platelets
T3 sequence (P11169 1-496): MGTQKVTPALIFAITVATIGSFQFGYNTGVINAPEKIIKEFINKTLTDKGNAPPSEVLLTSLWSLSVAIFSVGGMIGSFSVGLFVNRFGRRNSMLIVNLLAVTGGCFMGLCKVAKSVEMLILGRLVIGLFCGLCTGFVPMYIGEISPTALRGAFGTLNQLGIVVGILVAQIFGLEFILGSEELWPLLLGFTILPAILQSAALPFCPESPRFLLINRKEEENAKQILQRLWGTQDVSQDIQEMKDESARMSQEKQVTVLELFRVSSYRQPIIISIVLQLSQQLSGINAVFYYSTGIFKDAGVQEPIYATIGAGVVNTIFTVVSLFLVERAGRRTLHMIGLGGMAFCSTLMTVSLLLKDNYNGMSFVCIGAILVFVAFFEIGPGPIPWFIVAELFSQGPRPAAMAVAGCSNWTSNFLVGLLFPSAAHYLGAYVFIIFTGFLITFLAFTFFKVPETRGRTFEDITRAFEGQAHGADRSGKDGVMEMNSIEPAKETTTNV
Excerpt: (§3) 7-^125 I-HPP-Fsk also binds with high affinity to other tissues including bovine brain, rat heart, rat muscle, and human platelets. The binding of 7-^125 I-HPP-Fsk to these tissues is inhibited by D-glucose and cytochalasin B. Therefore, 7-^125 I-HPP-Fsk binds with high affinity to the glucose transporter in diverse tissues.

[18] = test system: glucose transporter; experiment: Binding of 7-^125 I-HPP-Fsk to bovine brain
Excerpt: as §3

[19] = test system: glucose transporter; experiment: Binding of 7-^125 I-HPP-Fsk to rat muscle
Excerpt: as §3

[20] = target: glucose transporter; conditions: read-out: affinity of cytochalasin B; cited from earlier work
[21] = test system: glucose transporter; experiment: Binding of 7-^125 I-HPP-Fsk to rat heart
Excerpt: as §3

T2 sequence (P08183 whole entry): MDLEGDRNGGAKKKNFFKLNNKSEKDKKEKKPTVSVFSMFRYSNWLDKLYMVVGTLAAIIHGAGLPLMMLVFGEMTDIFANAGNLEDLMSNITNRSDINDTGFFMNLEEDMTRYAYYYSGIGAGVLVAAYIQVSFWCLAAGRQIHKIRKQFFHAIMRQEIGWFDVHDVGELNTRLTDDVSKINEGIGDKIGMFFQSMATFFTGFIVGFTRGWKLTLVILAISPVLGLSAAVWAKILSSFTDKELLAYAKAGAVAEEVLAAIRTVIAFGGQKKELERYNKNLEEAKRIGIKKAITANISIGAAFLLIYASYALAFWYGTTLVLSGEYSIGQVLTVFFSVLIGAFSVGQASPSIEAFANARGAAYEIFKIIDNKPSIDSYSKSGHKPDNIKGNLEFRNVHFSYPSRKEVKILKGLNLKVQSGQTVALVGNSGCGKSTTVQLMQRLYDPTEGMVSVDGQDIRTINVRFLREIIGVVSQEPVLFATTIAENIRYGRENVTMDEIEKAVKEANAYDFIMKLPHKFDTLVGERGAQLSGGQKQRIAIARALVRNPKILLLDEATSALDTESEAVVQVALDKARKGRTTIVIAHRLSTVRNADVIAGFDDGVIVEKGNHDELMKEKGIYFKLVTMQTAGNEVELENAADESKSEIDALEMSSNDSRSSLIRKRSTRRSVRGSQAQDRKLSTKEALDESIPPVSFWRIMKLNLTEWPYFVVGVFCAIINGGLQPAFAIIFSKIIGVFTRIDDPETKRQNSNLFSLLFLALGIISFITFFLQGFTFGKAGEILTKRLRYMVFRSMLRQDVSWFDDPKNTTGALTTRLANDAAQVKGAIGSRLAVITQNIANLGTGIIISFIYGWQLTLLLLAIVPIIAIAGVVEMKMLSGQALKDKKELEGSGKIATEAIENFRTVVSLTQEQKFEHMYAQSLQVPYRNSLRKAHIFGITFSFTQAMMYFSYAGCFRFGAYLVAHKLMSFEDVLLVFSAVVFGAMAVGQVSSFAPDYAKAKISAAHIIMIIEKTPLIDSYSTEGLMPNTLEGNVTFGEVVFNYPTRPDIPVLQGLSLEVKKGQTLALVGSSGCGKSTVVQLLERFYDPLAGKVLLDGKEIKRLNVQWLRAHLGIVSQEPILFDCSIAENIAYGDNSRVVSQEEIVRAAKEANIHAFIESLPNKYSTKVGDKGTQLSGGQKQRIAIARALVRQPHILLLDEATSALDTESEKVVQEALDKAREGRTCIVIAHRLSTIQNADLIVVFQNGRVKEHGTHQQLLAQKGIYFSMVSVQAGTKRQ

## C=C[C@@]1(C)CC(=O)[C@]2(O)[C@@]3(C)[C@@H](O)CCC(C)(C)[C@@H]3[C@H](O)[C@H](OC(=O)NCCN)[C@@]2(C)O1 [Compound 3, 7-aminoethyl-carbamylforskolin]
[1]
  water solubility: enhanced water solubility
[2]
  stability: stable
[3]; erythrocyte membranes
  potency relative to 6-aminoethylcarbamyl derivative 4 at inhibiting binding of 7-^125 I-HPP-Fsk: about 30 fold
[4]
  extent of stimulation of adenylate cyclase: stimulate adenylate cyclase to a greater extent than forskolin

## C=C[C@@]1(C)CC(=O)[C@]2(O)[C@@]3(C)[C@@H](O)CCC(C)(C)[C@@H]3[C@H](OC(=O)NCCNC(=O)CCc3ccc(O)c([125I])c3)[C@H](OC(C)=O)[C@@]2(C)O1 [Derivative 19]
[5]
  Kd: ~25 nM
[6]; 20° C.
  time binding was constant: at least 2 hours
  time to binding equilibrium: ≤ 45 min
[6]; adenylate cyclase versus glucose transporter, listed as 6-^125 I-HPP-Fsk
  selectivity of 6-^125 I-HPP-Fsk binding: not binding with high affinity to the glucose transporter in brain tissue; also recorded: specific for adenylate cyclase
[6]; bovine brain membranes
  binding affinity: high affinity
[6]; membranes from bovine brain
  Kd: ~25 nM

## C=C[C@@]1(C)CC(=O)[C@@H]2[C@@]3(C)CCCC(C)(C)[C@@H]3[C@H](O)[C@H](OC(C)=O)[C@@]2(C)O1 [1,9-dideoxyforskolin]
[7]
  activation of adenylate cyclase: inability
[7]; listed as 1,9-Dideoxyforskolin
  activation of adenylate cyclase: does not activate adenylate cyclase; also recorded: not active at adenylate cyclase
[8]
  inhibition of labelling by 6-AIPPS-Fsk: more potent at inhibiting the labelling by 6-AIPPS-Fsk than forskolin
[9]; adipocyte membranes, literature
  inhibition of glucose transport: inhibit glucose transport in adipocyte membranes
[6]; bovine brain membranes, 20° C.
  inhibition of 6-^125 I-HPP-Fsk binding: not by 1,9-dideoxyforskolin
[10]
  inhibition of labelling by 6-AIPPS-Fsk: not inhibited
[11]
  sensitization to cytotoxic effects of drugs: can sensitize certain cancer cells to the cytotoxic effects of drugs

## COc1cccc2c1C(=O)c1c(O)c3c(c(O)c1C2=O)C[C@@](O)(C(=O)CO)C[C@@H]3O[C@H]1C[C@H](N)[C@H](O)[C@H](C)O1 [adriamycin]
[12]
  inhibition of labelling by 6-AIPPS-Fsk: inhibited

## C=C[C@@]1(C)CC(=O)[C@]2(O)[C@@]3(C)[C@@H](O)CCC(C)(C)[C@@H]3[C@H](O)[C@H](OC(C)=O)[C@@]2(C)O1 [Compound 1, forskolin]
[7]
  activation of adenylate cyclase: activate the enzyme adenylate cyclase and increase intracellular cyclic AMP
[9]; relative to adenylate cyclase activation
  potency at activating adenylate cyclase versus inhibiting glucose transport: equipotent
[6]; bovine brain membranes, 20° C.
  inhibition of 6-^125 I-HPP-Fsk binding: inhibited
[3]
  binding affinity / selectivity: binds to the glucose transporter in human red blood cells
  inhibition of 7-^125 I-HPP-Fsk binding: inhibited
[13]
  inhibition of labelling by 6-AIPPS-Fsk: inhibited
[14]
  binding to P-glycoprotein: bind to the P-glycoprotein
[11]
  sensitization to cytotoxic effects of drugs: can sensitize certain cancer cells to the cytotoxic effects of drugs
[15]
  cardiotonic effects: marked cardiotonic effects

## C=C1C(C)C2C(Cc3ccccc3)NC(=O)C23OC(=O)/C=C/C(O)CCCC(C)C/C=C/C3C1O (stereo not drawn) [cytochalasin B]
[16]
  inhibition of labelling by 7-AIPPS-Fsk: inhibited
[17]
  inhibition of 7-^125 I-HPP-Fsk binding: inhibited
[18]
  inhibition of 7-^125 I-HPP-Fsk binding: inhibited
[6]; bovine brain membranes, 20° C.
  inhibition of 6-^125 I-HPP-Fsk binding: not inhibited
[19]
  inhibition of 7-^125 I-HPP-Fsk binding: inhibited
[3]
  inhibition of 7-^125 I-HPP-Fsk binding: inhibition of binding; also recorded: inhibited
[3]; listed as cytochlasin B
  inhibition of 7-^125 I-HPP-Fsk binding: inhibited
[20]
  Kd: ~1000 nM
[21]
  inhibition of 7-^125 I-HPP-Fsk binding: inhibited
